Molecules are shown by their SMILES. Where a name gives a salt, the structure may show the parent alone.

The test system of the first data set is tumor necrosis factor (α) (TNF-α). The experiment in a line: Cytokine induction in human cells: TNF-α secreted by PBMC (ORIGEN M-Series immunoassay). Format: cell-based. Particulars: 18 to 24 hours, lowest tested concentration inducing response over 40 pg/mL, median if more than one experiment, read-out: Minimum Effective Concentration (μM) TNF. The text has this: (§1) An in vitro human blood cell system is used to assess cytokine induction. Activity is based on the measurement of interferon (α) and tumor necrosis factor (α) (IFN-α and TNF-α, respectively) secreted into culture media as described by Testerman et. al. in “Cytokine Induction by the Immunomodulators Imiquimod and S-27609”, Journal of Leukocyte Biology, 58, 365-372 (September, 1995).
(§2) Whole blood from healthy human donors is collected by venipuncture into vacutainer tubes or syringes containing EDTA. Peripheral blood mononuclear cells (PBMC) are separated from whole blood by density gradient centrifugation using HISTOPAQUE-1077 (Sigma, St. Louis, Mo.) or Ficoll-Paque Plus (Amersham Biosciences Piscataway, N.J.). Blood is diluted 1:1 with Dulbecco's Phosphate Buffered Saline (DPBS) or Hank's Balanced Salts Solution (HBSS). Alternately, whole blood is placed in Accuspin (Sigma) or LeucoSep (Greiner Bio-One, Inc., Longwood, Fla.) centrifuge frit tubes containing density gradient medium. The PBMC layer is collected and washed twice with DPBS or HBSS and re-suspended at 4×10^6 cells/mL in RPMI complete. The PBMC suspension is added to 96 well flat bottom sterile tissue culture plates containing an equal volume of RPMI complete media containing test compound.
(§3) The compounds are solubilized in dimethyl sulfoxide (DMSO). The DMSO concentration should not exceed a final concentration of 1% for addition to the culture wells. The compounds are generally tested at concentrations ranging from 30-0.014 μM. Controls include cell samples with media only, cell samples with DMSO only (no compound), and cell samples with reference compound.
(§4) The solution of test compound is added at 60 μM to the first well containing RPMI complete and serial 3 fold dilutions are made in the wells. The PBMC suspension is then added to the wells in an equal volume, bringing the test compound concentrations to the desired range (usually 30-0.014 μM). The final concentration of PBMC suspension is 2×10^6 cells/mL. The plates are covered with sterile plastic lids, mixed gently and then incubated for 18 to 24 hours at 37° C. in a 5% carbon dioxide atmosphere.
(§5) Following incubation the plates are centrifuged for 10 minutes at 1000 rpm (approximately 200×g) at 4° C. The cell-free culture supernatant is removed and transferred to sterile polypropylene tubes. Samples are maintained at −30 to −70° C. until analysis. The samples are analyzed for IFN-α by ELISA and for TNF-α by IGEN/BioVeris Assay.
The TNF-α concentration is determined by ORIGEN M-Series Immunoassay and read on an IGEN M-8 analyzer from BioVeris Corporation, formerly known as IGEN International, Gaithersburg, Md. The immunoassay uses a human TNF-α capture and detection antibody pair (Catalog Numbers AHC3419 and AHC3712) from Biosource International, Camarillo, Calif. Results are expressed in pg/mL.
(§6) In total, the data output of the assay consists of concentration values of TNF-α and IFN-α(y-axis) as a function of compound concentration (x-axis).
Analysis of the data has two steps. First, the greater of the mean DMSO (DMSO control wells) or the experimental background (usually 20 pg/mL for IFN-α and 40 pg/mL for TNF-α) is subtracted from each reading. If any negative values result from background subtraction, the reading is reported as “*”, and is noted as not reliably detectable. In subsequent calculations and statistics, “*”, is treated as a zero. Second, all background subtracted values are multiplied by a single adjustment ratio to decrease experiment to experiment variability. The adjustment ratio is the area of the reference compound in the new experiment divided by the expected area of the reference compound based on the past 61 experiments (unadjusted readings). […]
In the case of `Nc1nc2cc(-c3cccnc3)ccc2c2c1nc(CO)n2CCCCNC(=O)C1CCCC1` [Example 42], the minimal effective concentration is 3.33 µM.

The test system of the next data set is interferon (α) (IFN-α). The experiment in a line: Cytokine induction in human cells: IFN-α secreted by PBMC (ELISA). The format is cell-based. Conditions: 18 to 24 hours, lowest tested concentration inducing response over 20 pg/mL, median if more than one experiment, read-out: Minimum Effective Concentration (μM) IFN.
From the text: as §1, §2, §3, §4, §5
IFN-α concentration is determined with a human multi-subtype colorimetric sandwich ELISA (Catalog Number 41105) from PBL Biomedical Laboratories, Piscataway, N.J. Results are expressed in pg/mL.
as §6
Analysis of the data has two steps. First, the greater of the mean DMSO (DMSO control wells) or the experimental background (usually 20 pg/mL for IFN-α and 40 pg/mL for TNF-α) is subtracted from each reading. If any negative values result from background subtraction, the reading is reported as “*”, and is noted as not reliably detectable. In subsequent calculations and statistics, “*”, is treated as a zero. Second, all background subtracted values are multiplied by a single adjustment ratio to decrease experiment to experiment variability. The adjustment ratio is the area of the reference compound in the new experiment divided by the expected area of the reference compound based on the past 61 experiments (unadjusted readings). […] The reference compound used is 2-[4-amino-2-ethoxymethyl-6,7,8,9-tetrahydro-α,α-dimethyl-1H-imidazo[4,5-c]quinolin-1-yl]ethanol hydrate (U.S. Pat. No. 5,352,784; Example 91) and the expected area is the sum of the median dose values from the past 61 experiments.
The minimum effective concentration is calculated based on the background-subtracted, reference-adjusted results for a given experiment and compound. […]
For `Nc1nc2cc(-c3cccnc3)ccc2c2c1nc(CO)n2CCCCNC(=O)C1CCCC1` [Example 42], the minimal effective concentration was determined as 0.12 µM.

System in another data set: not given
Experiment: not given
Settings: not given
By melting point is commonly meant the temperature, or range, at which the solid turns liquid. `CC(C)NC(=O)N1CCC(Cn2c(CO)nc3c(N)nc4cc(-c5cncc(CO)c5)ccc4c32)CC1` (as salt: HBr) [Example 46] displayed a melting point of more than 300 °C.
In turn, `Nc1nc2cc(-c3cccc(C(=O)N4CCOCC4)c3)ccc2c2c1nc(CO)n2CC1CCCCC1` (as salt: HCl) (hydrate or solvate) [Example 50] yielded a melting point of 260 to 264 °C.
Still for that read-out and setting: the result for `CC(C)(O)Cn1c(CO)nc2c(N)nc3cc(-c4cncc(CO)c4)ccc3c21` (hydrate or solvate) [Example 33] reads 180 to 182 °C; that for `CC(C)C(=O)N1CCC(Cn2c(CO)nc3c(N)nc4cc(-c5cccnc5)ccc4c32)CC1` (hydrate or solvate) [Example 35], 154 to 157 °C.
Still for that read-out and setting: the figure for `CC(C)(O)Cn1c(CO)nc2c(N)nc3cc(-c4ccc(F)nc4)ccc3c21` (hydrate or solvate) [Example 37] is 111 to 114 °C.
`CS(=O)(=O)NCCCCn1c(CO)nc2c(N)nc3cc(-c4cccnc4)ccc3c21` (hydrate or solvate) [Example 38] displayed a melting point of 188 to 190 °C.
On to `CCCNC(=O)NCCCCn1c(CO)nc2c(N)nc3cc(-c4cccnc4)ccc3c21` (hydrate or solvate) [Example 39], for which the melting point was 206 to 209 °C.
Still for that read-out and setting: the figure for `CCCC(=O)NCCCCn1c(CO)nc2c(N)nc3cc(-c4cccnc4)ccc3c21` (hydrate or solvate) [Example 40] is 211 to 212 °C; for `Nc1nc2cc(-c3cccnc3)ccc2c2c1nc(CO)n2CCCCNC(=O)NC1CCCC1` (hydrate or solvate) [Example 41] it is 225 to 227 °C.
As to `CC(C)C(=O)NCCCCn1c(CO)nc2c(N)nc3cc(-c4cccnc4)ccc3c21` (hydrate or solvate) [Example 43], the melting point lay in the range of 225 to 227 °C.
The same measure, in the same setting: the result for `Cc1cccc(-c2ccc3c(c2)nc(N)c2nc(CCO)n(CCCN4CCCC4=O)c23)c1` (hydrate or solvate) [Example 47] reads 218 to 221 °C.
On the same count and under the same terms, the figure for `Nc1nc2cc(-c3ccccc3O)ccc2c2c1nc(CCO)n2CCCN1CCCC1=O` (hydrate or solvate) [Example 48] is more than 250 °C; for `Nc1nc2cc(-c3cncc(CO)c3)ccc2c2c1nc(CO)n2CC1CCCCC1` (hydrate or solvate) [Example 49] it is 166 to 170 °C.
On the same count and under the same terms, the result for `CC(C)(O)Cn1c(CO)nc2c(N)nc3cc(-c4cccnc4)ccc3c21` (hydrate or solvate) [Example 51] reads 141 to 143 °C; that for `Nc1nc2cc(-c3cccnc3)ccc2c2c1nc(CO)n2CC1CCOCC1` [Example 32, [4-Amino-7-pyridin-3-yl-1-(tetrahydro-2H-pyran-4-ylmethyl)-1H-imidazo[4,5-c]quinolin-2-yl]methanol], 260 to 262 °C; that for `CS(=O)(=O)N1CCC(Cn2c(CO)nc3c(N)nc4cc(-c5cccnc5)ccc4c32)CC1` [Example 34], 196 to 198 °C.
As for `CC(C)NC(=O)N1CCC(Cn2c(CO)nc3c(N)nc4cc(-c5cccnc5)ccc4c32)CC1` [Example 36], the melting point is 182 to 184 °C.
On the same count and under the same terms, the figure for `Nc1nc2cc(-c3cccnc3)ccc2c2c1nc(CO)n2CCCCNC(=O)C1CCCC1` [Example 42] is 241 to 242 °C; for `Nc1nc2cc(-c3cccc(C(=O)N4CCCC4)c3)ccc2c2c1nc(CO)n2CC1CCOCC1` [Example 139, [4-Amino-7-[3-(pyrrolidin-1-ylcarbonyl)phenyl]-1-(tetrahydro-2H-pyran-4-ylmethyl)-1H-imidazo[4,5-c]quinolin-2-yl]methanol] it is 281 to 284 °C.

For the origin of these results see US8158794B2, “Hydroxyalkyl substituted imidazoquinoline compounds and methods” (3M Innovative Properties Company, priority 2005, dated 2012).
